Reference: patent US8299048B2, “Hexahydrocyclopentyl[f]indazole sulfonamides and derivatives thereof as selective glucocorticoid receptor modulators” (Merck Sharp & Dohme Corp., priority 2008, dated 2012)

The compounds below were run against T1, glucocorticoid receptor (Homo sapiens, UniProt P04150) (assay: Ligand binding assay (GR BIND)).
T1 construct: endogenous in cells
T1 sequence (P04150 1-777): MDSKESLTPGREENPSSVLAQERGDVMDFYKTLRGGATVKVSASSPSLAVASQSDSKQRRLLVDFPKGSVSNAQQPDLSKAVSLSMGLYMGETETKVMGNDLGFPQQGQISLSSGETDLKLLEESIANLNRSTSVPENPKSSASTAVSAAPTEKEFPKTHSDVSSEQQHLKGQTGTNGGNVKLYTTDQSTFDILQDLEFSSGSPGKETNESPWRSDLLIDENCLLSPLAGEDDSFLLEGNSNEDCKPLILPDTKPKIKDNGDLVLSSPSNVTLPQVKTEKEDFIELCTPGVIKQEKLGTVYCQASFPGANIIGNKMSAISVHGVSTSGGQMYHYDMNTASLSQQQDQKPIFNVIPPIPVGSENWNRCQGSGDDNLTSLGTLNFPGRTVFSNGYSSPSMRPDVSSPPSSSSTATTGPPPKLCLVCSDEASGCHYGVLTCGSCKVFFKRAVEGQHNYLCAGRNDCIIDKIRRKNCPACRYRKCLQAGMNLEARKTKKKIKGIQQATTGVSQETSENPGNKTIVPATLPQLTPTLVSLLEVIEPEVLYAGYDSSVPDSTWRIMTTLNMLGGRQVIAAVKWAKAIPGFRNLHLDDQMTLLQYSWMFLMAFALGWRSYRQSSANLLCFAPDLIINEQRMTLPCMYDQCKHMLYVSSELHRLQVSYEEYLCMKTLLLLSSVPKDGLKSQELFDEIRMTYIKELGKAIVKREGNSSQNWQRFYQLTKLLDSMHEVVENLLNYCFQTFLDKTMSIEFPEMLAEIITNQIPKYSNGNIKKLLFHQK
How it was run: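 Displacement of tritiated dexamethasone (6 nM trace solution) from receptor in cell supernatant was measured after overnight incubation at 4 °C in molybdate-containing TEGM, pH 7.2, 2% ethanol. Hydroxylapatite pulled down the receptor–ligand complex for filter washing and scintillation counting, with dexamethasone as reference.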

Ki	SMILES
20.9 nM	C[C@]12Cc3cnn(-c4ccc(F)cc4)c3C=C1CC[C@@H]2CNS(=O)(=O)Cc1cccnc1 [Example 169, N-{[(4αR,5S)-1-(4-fluorophenyl)-4α-methyl-1,4,4α,5,6,7-hexahydrocyclopenta[f]indazol-5-yl]methyl}-1-pyridin-3-ylmethanesulfonamide]
2.6 nM	Cc1noc(C)c1S(=O)(=O)N(CC1CCCO1)C[C@H]1CCC2=Cc3c(cnn3-c3ccc(F)cc3)C[C@@]21C (stereo partly drawn) [Example 170, N-{[(4αR,5S)-1-(4-fluorophenyl)-4α-methyl-1,4,4α,5,6,7-hexahydrocyclopenta[f]indazol-5-yl]methyl}-3,5-dimethyl-N-(tetrahydrofuran-2-ylmethyl)isoxazole-4-sulfonamide]
7 nM	CCS(=O)(=O)N(CCOC)C[C@H]1CCC2=Cc3c(cnn3-c3ccc(F)cc3)C[C@@]21C [Example 171, N-{[(4αR,5S)-1-(4-fluorophenyl)-4α-methyl-1,4,4α,5,6,7-hexahydrocyclopenta[f]indazol-5-yl]methyl}-N-(2-methoxyethyl)ethanesulfonamide]
0.6 nM	COCCN(C[C@H]1CCC2=Cc3c(cnn3-c3ccc(F)cc3)C[C@@]21C)S(=O)(=O)c1cn(C)nc1C(F)(F)F [Example 172, N-{[(4αR,5S)-1-(4-fluorophenyl)-4α-methyl-1,4,4α,5,6,7-hexahydrocyclopenta[f]indazol-5-yl]methyl}-N-(2-methoxyethyl)-1-methyl-3-(trifluoromethyl)-1H-pyrazole-4-sulfonamide]
1.3 nM	COCCN(C[C@H]1CCC2=Cc3c(cnn3-c3ccc(F)cc3)C[C@@]21C)S(=O)(=O)c1c(C)noc1C [Example 173, N-{[(4αR,5S)-1-(4-fluorophenyl)-4α-methyl-1,4,4α,5,6,7-hexahydrocyclopenta[f]indazol-5-yl]methyl}-N-(2-methoxyethyl)-3,5-dimethylisoxazole-4-sulfonamide]
3.4 nM	CCS(=O)(=O)N(CC1CCCO1)C[C@H]1CCC2=Cc3c(cnn3-c3ccc(F)cc3)C[C@@]21C (stereo partly drawn) [Example 174, N-{[(4αR,5S)-1-(4-fluorophenyl)-4α-methyl-1,4,4α,5,6,7-hexahydrocyclopenta[f]indazol-5-yl]methyl}-N-(tetrahydrofuran-2-ylmethyl)ethanesulfonamide]
1 nM	Cn1cc(S(=O)(=O)N(CC2CCCO2)C[C@H]2CCC3=Cc4c(cnn4-c4ccc(F)cc4)C[C@@]32C)c(C(F)(F)F)n1 (stereo partly drawn) [Example 175, N-{[(4αR,5S)-1-(4-fluorophenyl)-4α-methyl-1,4,4α,5,6,7-hexahydrocyclopenta[f]indazol-5-yl]methyl}-1-methyl-N-(tetrahydrofuran-2-ylmethyl)-3-(trifluoromethyl)-1H-pyrazole-4-sulfonamide]
1.3 nM	Cc1noc(C)c1S(=O)(=O)N(C)C[C@H]1CCC2=Cc3c(cnn3-c3ccc(F)cc3)C[C@@]21C [Example 176, N-{[(4αR,5S)-1-(4-fluorophenyl)-4α-methyl-1,4,4α,5,6,7-hexahydrocyclopenta[f]indazol-5-yl]methyl}-N,3,5-trimethylisoxazole-4-sulfonamide]
1.6 nM	CN(C[C@H]1CCC2=Cc3c(cnn3-c3ccc(F)cc3)C[C@@]21C)S(=O)(=O)CC(F)(F)F [Example 177, 2,2,2-trifluoro-N-{[(4αR,5S)-1-(4-fluorophenyl)-4α-methyl-1,4,4α,5,6,7-hexahydrocyclopenta[f]indazol-5-yl]methyl}-N-methylethanesulfonamide]
1.2 nM	CCN(C[C@H]1CCC2=Cc3c(cnn3-c3ccc(F)cc3)C[C@@]21C)S(=O)(=O)c1c(C)noc1C [Example 178, N-ethyl-N-{[(4αR,5S)-1-(4-fluorophenyl)-4α-methyl-1,4,4α,5,6,7-hexahydrocyclopenta[f]indazol-5-yl]methyl}-3,5-dimethylisoxazole-4-sulfonamide]
1.2 nM	CCN(C[C@H]1CCC2=Cc3c(cnn3-c3ccc(F)cc3)C[C@@]21C)S(=O)(=O)CC(F)(F)F [Example 179, N-ethyl-2,2,2-trifluoro-N-{[(4αR,5S)-1-(4-fluorophenyl)-4α-methyl-1,4,4α,5,6,7-hexahydrocyclopenta[f]indazol-5-yl]methyl}ethanesulfonamide]
1.8 nM	COC(=O)c1ccccc1CS(=O)(=O)N(C[C@H]1CCC2=Cc3c(cnn3-c3ccc(F)cc3)C[C@@]21C)C[C@@H](C)O [Example 180, methyl 2-[({{[(4αR,5S)-1-(4-fluorophenyl)-4α-methyl-1,4,4α,5,6,7-hexahydrocyclopenta[f]indazol-5-yl]methyl}[(2R)-2-hydroxypropyl]amino}sulfonyl)methyl]benzoatee]
2.8 nM	COC(=O)c1ccccc1CS(=O)(=O)N(C[C@H]1CCC2=Cc3c(cnn3-c3ccc(F)cc3)C[C@@]21C)C[C@H](C)O [Example 181, methyl 2-[({{[(4αR,5S)-1-(4-fluorophenyl)-4α-methyl-1,4,4α,5,6,7-hexahydrocyclopenta[f]indazol-5-yl]methyl}[(2S)-2-hydroxypropyl]amino}sulfonyl)methyl]benzoate]
93.9 nM	C[C@@H](O)CN(C[C@H]1CCC2=Cc3c(cnn3-c3ccc(F)cc3)C[C@@]21C)S(=O)(=O)Cc1ccccc1C(=O)O [Example 182, 2-[({{[(4αR,5S)-1-(4-fluorophenyl)-4α-methyl-1,4,4α,5,6,7-hexahydrocyclopenta[f]indazol-5-yl]methyl}[(2R)-2-hydroxypropyl]amino}sulfonyl)methyl]benzoic acid]
64 nM	C[C@H](O)CN(C[C@H]1CCC2=Cc3c(cnn3-c3ccc(F)cc3)C[C@@]21C)S(=O)(=O)Cc1ccccc1C(=O)O [Example 183, 2-[({{[(4αR,5S)-1-(4-fluorophenyl)-4α-methyl-1,4,4α,5,6,7-hexahydrocyclopenta[f]indazol-5-yl]methyl}[(2S)-2-hydroxypropyl]amino}sulfonyl)methyl]benzoic acid]
9.6 nM	C[C@@H](O)CN(C[C@H]1CCC2=Cc3c(cnn3-c3ccc(F)cc3)C[C@@]21C)S(=O)(=O)Cc1ccccc1C(N)=O [Example 184, 2-[({{[(4αR,5S)-1-(4-fluorophenyl)-4α-methyl-1,4,4α,5,6,7-hexahydrocyclopenta[f]indazol-5-yl]methyl}[(2R)-2-hydroxypropyl]amino}sulfonyl)methyl]benzamide]
13.1 nM	C[C@H](O)CN(C[C@H]1CCC2=Cc3c(cnn3-c3ccc(F)cc3)C[C@@]21C)S(=O)(=O)Cc1ccccc1C(N)=O [Example 185, 2-[({{[(4αR,5S)-1-(4-fluorophenyl)-4α-methyl-1,4,4α,5,6,7-hexahydrocyclopenta[f]indazol-5-yl]methyl}[(2S)-2-hydroxypropyl]amino}sulfonyl)methyl]benzamide]
1.9 nM	COC(=O)c1ccccc1S(=O)(=O)N(C[C@H]1CCC2=Cc3c(cnn3-c3ccc(F)cc3)C[C@@]21C)C[C@@H](C)O [Example 186, methyl 2-({{[(4αR,5S)-1-(4-fluorophenyl)-4α-methyl-1,4,4α,5,6,7-hexahydrocyclopenta[f]indazol-5-yl]methyl}[(2R)-2-hydroxypropyl]amino}sulfonyl)benzoate]
2.5 nM	COC(=O)c1ccccc1S(=O)(=O)N(C[C@H]1CCC2=Cc3c(cnn3-c3ccc(F)cc3)C[C@@]21C)C[C@H](C)O [Example 187, methyl 2-({{[(4αR,5S)-1-(4-fluorophenyl)-4α-methyl-1,4,4α,5,6,7-hexahydrocyclopenta[f]indazol-5-yl]methyl}[(2S)-2-hydroxypropyl]amino}sulfonyl)benzoate]
1.2 nM	COC(=O)c1ccccc1CS(=O)(=O)N(CCc1ccccc1F)C[C@H]1CCC2=Cc3c(cnn3-c3ccc(F)cc3)C[C@@]21C [Example 188, methyl 2-{[([2-(2-fluorophenyl)ethyl]{[(4αR,5S)-1-(4-fluorophenyl)-4α-methyl-1,4,4α,5,6,7-hexahydrocyclopenta[f]indazol-5-yl]methyl}amino)sulfonyl]methyl}benzoate]
1.1 nM	COC(=O)c1ccccc1S(=O)(=O)N(CCc1ccccc1F)C[C@H]1CCC2=Cc3c(cnn3-c3ccc(F)cc3)C[C@@]21C [Example 189, methyl 2-[([2-(2-fluorophenyl)ethyl]{[(4αR,5S)-1-(4-fluorophenyl)-4α-methyl-1,4,4α,5,6,7-hexahydrocyclopenta[f]indazol-5-yl]methyl}amino)sulfonyl]benzoate]
1.5 nM	C[C@]12Cc3cnn(-c4ccc(F)cc4)c3C=C1CC[C@@H]2CN(CCc1ccccc1F)S(=O)(=O)Cc1ccccc1C(N)=O [Example 190, 2-{[([2-(2-fluorophenyl)ethyl]{[(4αR,5S)-1-(4-fluorophenyl)-4α-methyl-1,4,4α,5,6,7-hexahydrocyclopenta[f]indazol-5-yl]methyl}amino)sulfonyl]methyl}benzamide]
